Measured values taken from US11945798B2, “Substituted aminopyridine compounds as EGFR inhibitors” (YUHAN CORPORATION, priority 2021, dated 2024).
Where two headings read alike, the source gives them in different places.

Tests used:
EGFR wildtype (WT) = EGFR wildtype (WT) (Homo sapiens, UniProt P00533); assay: Biochemical EGFR kinase assay (Lance Ultra TR-FRET), wildtype
Description: (§1) Biochemical EGFR kinase assays were conducted using Lance Ultra time-resolved fluorescence resonance energy transfer (TR-FRET) technology from Perkin-Elmer. Compounds of the invention were initially diluted to 20 mM in 100% DMSO for storage and made into kinase buffer solution to create a compound concentration ranging from 0.003 μM and 10 μM.
(§2) Each kinase reactions were incubated at room temperature for 1 hour and then stopped by the addition of 4 μL of stop solution (10 mM EDTA). The specific Europium-labeled-anti-phosphopeptide antibody (PerkinElmer, AD0069) diluted in LANCE detection buffer was then added to a final concentration of 2 nM. After 60 minutes incubation at room temperature the LANCE signal was measured on an EnVision Multilabel Reader (Perkin-Elmer). Excitation wavelength was set at 320 nm and emission monitored at 615 nm (donor) and 665 nm (acceptor). The IC50 values were determined using GraphPad prism software (GraphPad Software, Inc., San Diego, CA, USA).

EGFR del19/C797S = EGFR del19/C797S (Homo sapiens, UniProt P00533, C797S/DEL746-750); assay: Biochemical EGFR kinase assay (Lance Ultra TR-FRET), del19/C797S
Description: as §1, §2

EGFR L858R/T790M/C797S = EGFR L858R/T790M/C797S (Homo sapiens, UniProt P00533, C797S/L858R/T790M); assay: Biochemical EGFR kinase assay (Lance Ultra TR-FRET), L858R/T790M/C797S
Description: as §1, §2

EGFR L858R/C797S = EGFR L858R/C797S (Homo sapiens, UniProt P00533, C797S/L858R); assay: Biochemical EGFR kinase assay (Lance Ultra TR-FRET), L858R/C797S
Description: as §1, §2

EGFR del19/T790M/C797S = EGFR del19/T790M/C797S (Homo sapiens, UniProt P00533, C797S/DEL746-750/T790M); assay: Biochemical EGFR kinase assay (Lance Ultra TR-FRET), del19/T790M/C797S
Description: as §1, §2

[1] = IC50 WT (nM) 100 μM ATP, 100 μM ATP
[2] = Km ATP, read-out: IC50 WT (nM) Km ATP
[3] = IC50 del19/C797S (nM) 100 μM ATP, 100 μM ATP
[4] = Km ATP, read-out: IC50 del19/C797S (nM) Km ATP
[5] = IC50 L858R/T790M/C797S (nM) 100 μM ATP, 100 μM ATP
[6] = Km ATP, read-out: IC50 L858R/T790M/C797S (nM) Km ATP
[7] = IC50 L858R/C797S (nM) 100 μM ATP, 100 μM ATP
[8] = Km ATP, read-out: IC50 L858R/C797S (nM) Km ATP
[9] = IC50 del19/T790M/C797S (nM) 100 μM ATP, 100 μM ATP
[10] = Km ATP, read-out: IC50 del19/T790M/C797S (nM) Km ATP

Molecule | IC50 (EGFR wildtype (WT); [1]) | IC50 (EGFR wildtype (WT); [2]) | IC50 (EGFR del19/C797S; [3]) | IC50 (EGFR del19/C797S; [4]) | IC50 (EGFR L858R/T790M/C797S; [6]) | IC50 (EGFR L858R/C797S; [8]) | IC50 (EGFR del19/T790M/C797S; [10]) | other results
O=C(c1cnc(Nc2ccnc(-c3cnn(S(=O)(=O)C4CC4)c3)n2)cc1N[C@H]1CC[C@@H](NCCF)CC1)C(F)F [Example 51, 1-(6-((2-(1-(Cyclopropylsulfonyl)-1H-pyrazol-4-yl)pyrimidin-4-yl)amino)-4-(((1s,4s)-4-((2-fluoroethyl)amino)cyclohexyl)amino)pyridin-3-yl)-2,2-difluoroethan-1-one] | > 10000 nM | 1240 nM | 18.9 nM | 45.4 nM | 1.1 nM | 47.1 nM |  | IC50 (EGFR L858R/T790M/C797S; [5]): 4.5 nM; IC50 (EGFR L858R/C797S; [7]): 407 nM
CN(C)CCNC1CCC(Nc2cc(Nc3ccnc(-c4cnn(S(=O)(=O)C5CC5)c4)n3)ncc2C(=O)C2CC2)CC1 (centres unmarked) [Example 53, Cyclopropyl(6-((2-(1-(cyclopropylsulfonyl)-1H-pyrazol-4-yl)pyrimidin-4-yl)amino)-4-((4-((2-(dimethylamino)ethyl)amino)cyclohexyl)amino)pyridin-3-yl)methanone] | 1900 nM |  | 1.8 nM |  |  |  |  | IC50 (EGFR del19/T790M/C797S; [9]): 0.5 nM; IC50 (EGFR L858R/T790M/C797S; [5]): 0.5 nM
CN(C)C[C@H]1CC[C@H](CNc2cc(Nc3ccnc(-c4cnn(C5CC5)c4)n3)ncc2C(=O)C2CC2)CC1 [Example 60, Cyclopropyl(6-((2-(1-cyclopropyl-1H-pyrazol-4-yl)pyrimidin-4-yl)amino)-4-((((1r,4r)-4-((dimethylamino)methyl)cyclohexyl)methyl)amino)pyridin-3-yl)methanone] |  | 430 nM |  |  | 3.5 nM | 115 nM | 5.4 nM | 
CN(C)C[C@H]1CC[C@H](CNc2cc(Nc3ccnc(-c4cnn(CC5CC5)c4)n3)ncc2C(=O)C2CC2)CC1 [Example 61, Cyclopropyl(6-((2-(1-(cyclopropylmethyl)-1H-pyrazol-4-yl)pyrimidin-4-yl)amino)-4-((((1r,4r)-4-((dimethylamino)methyl)cyclohexyl)methyl)amino)pyridin-3-yl)methanone] |  | 415 nM |  |  |  | 123 nM | 5.7 nM | 
CC(=O)c1cnc(Nc2ccnc(-c3cnn(S(=O)(=O)C4CC4)c3)n2)cc1OC[C@H]1CC[C@H](CN(C)C)CC1 [Example 65, 1-(6-((2-(1-(Cyclopropylsulfonyl)-1H-pyrazol-4-yl)pyrimidin-4-yl)amino)-4-(((1r,4r)-4-((dimethylamino)methyl)cyclohexyl)methoxy)pyridin-3-yl)ethan-1-one] |  | 389 nM |  | 52.5 nM | 5.8 nM |  | 0.7 nM | 
CC(C)C(=O)NC[C@H]1CC[C@H](CNc2cc(Nc3ccnc(-c4cnn(S(=O)(=O)C5CC5)c4)n3)ncc2C(=O)C2CC2)CC1 [Example 72, N-(((1r,4r)-4-(((5-(Cyclopropanecarbonyl)-2-((2-(1-(cyclopropylsulfonyl)-1H-pyrazol-4-yl)pyrimidin-4-yl)amino)pyridin-4-yl)amino)methyl)cyclohexyl)methyl)isobutyramide] |  | 2040 nM |  | 7.2 nM |  | 45.8 nM | 1 nM | 
CC(NCC1CCC(CNc2cc(Nc3ccnc(-c4cnn(S(=O)(=O)C5CC5)c4)n3)ncc2C(=O)C2CC2)CC1)C(F)F (centres unmarked) [Example 73, Cyclopropyl(6-((2-(1-(cyclopropylsulfonyl)-1H-pyrazol-4-yl)pyrimidin-4-yl)amino)-4-((((1r,4r)-4-(((1,1-difluoropropan-2-yl)amino)methyl)cyclohexyl)methyl)amino)pyridin-3-yl)methanone] |  | 691 nM |  | 16.1 nM | 3.1 nM |  | 17.4 nM | 
CC(C)Nc1cc(Nc2ccnc(-c3cnn(S(=O)(=O)C4CC4)c3)n2)ncc1C1=CCCCO1 [Example 84, N^2-(2-(1-(Cyclopropylsulfonyl)-1H-pyrazol-4-yl)pyrimidin-4-yl)-5-(3,4-dihydro-2H-pyran-6-yl)-N^4-isopropylpyridine-2,4-diamine] | > 10000 nM |  | 107 nM |  |  |  |  | IC50 (EGFR del19/T790M/C797S; [9]): 4.5 nM; IC50 (EGFR L858R/C797S; [7]): 523 nM
Cyclopropyl(6-((2-(1-(cyclopropylsulfonyl)-1H-pyrazol-4-yl)pyrimidin-4-yl)amino)-4-((4-((4-methylpiperazin-1-yl)amino)cyclohexyl)amino)pyridin-3-yl)methanone [Example 54] |  |  |  |  |  |  |  | IC50 (EGFR wildtype (WT); read-out: IC50 WT (nM) 100 μM ATP, 100 μM ATP): > 10000 nM; IC50 (EGFR del19/C797S; read-out: IC50 del19/C797S (nM) 100 μM ATP, 100 μM ATP): 66.1 nM; IC50 (EGFR L858R/C797S; read-out: IC50 L858R/C797S (nM) 100 μM ATP, 100 μM ATP): 33.8 nM
